Tests used:
[1] = target: αvβ1 integrin (αvβ1 expressing CHO cells) (Homo sapiens (Human), UniProt P05556+P06756); assay: Cell adhesion assay: inhibition of αvβ1 expressing CHO cells attaching to TGFβ1LAP; format: cell-based; settings: 1 h at 37° C., crystal violet absorbance 595 nm, read-out: αvβ1 Inhibition IC50 (nM)-range
How it was run: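 Plates coated with 2 ug/ml TGFβ1LAP and blocked with 2% BSA; cells (1.0×10^6 cells/ml in DMEM) incubated with compound 1 hour at 37° C. Non-adherent cells removed by centrifugation; adherent cells stained with crystal violet, absorbance 595 nm, IC50 by four-parameter non-linear regression.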

[2] = target: recombinant human integrin αvβ1 (Homo sapiens (Human), UniProt P05556+P06756); assay: Solid phase integrin αvβ1 binding assay (fibronectin); settings: recombinant human integrin αvβ1 coated plate, recombinant fibronectin 2 ug/ml, 2 hours at 25° C., read-out: αvβ1 Inhibition IC50 (nM)-range
Sequence of recombinant human integrin αvβ1 (P06756 31-889): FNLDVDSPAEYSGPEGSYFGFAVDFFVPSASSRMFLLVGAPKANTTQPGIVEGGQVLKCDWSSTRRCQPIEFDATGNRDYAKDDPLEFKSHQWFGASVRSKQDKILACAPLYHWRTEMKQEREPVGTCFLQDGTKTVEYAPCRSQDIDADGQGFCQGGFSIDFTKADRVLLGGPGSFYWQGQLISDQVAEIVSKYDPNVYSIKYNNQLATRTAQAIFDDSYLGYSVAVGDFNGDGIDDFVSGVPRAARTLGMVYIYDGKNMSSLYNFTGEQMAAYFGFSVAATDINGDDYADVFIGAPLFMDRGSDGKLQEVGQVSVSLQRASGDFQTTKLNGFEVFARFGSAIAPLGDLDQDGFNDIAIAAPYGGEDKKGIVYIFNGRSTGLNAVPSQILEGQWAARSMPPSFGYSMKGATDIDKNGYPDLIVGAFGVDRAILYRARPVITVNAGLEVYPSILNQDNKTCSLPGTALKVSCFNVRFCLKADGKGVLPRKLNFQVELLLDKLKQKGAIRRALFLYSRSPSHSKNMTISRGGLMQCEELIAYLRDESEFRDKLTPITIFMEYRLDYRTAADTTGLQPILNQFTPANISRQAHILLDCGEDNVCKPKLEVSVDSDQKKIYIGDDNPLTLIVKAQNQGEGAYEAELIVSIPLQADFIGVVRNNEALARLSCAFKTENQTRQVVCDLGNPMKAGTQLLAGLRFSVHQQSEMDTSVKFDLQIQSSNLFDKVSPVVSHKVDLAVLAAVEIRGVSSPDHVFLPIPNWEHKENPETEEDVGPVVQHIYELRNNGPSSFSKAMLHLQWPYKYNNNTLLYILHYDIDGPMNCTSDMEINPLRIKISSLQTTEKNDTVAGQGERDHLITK
Sequence of recombinant human integrin αvβ1 (P06756 891-992 partner): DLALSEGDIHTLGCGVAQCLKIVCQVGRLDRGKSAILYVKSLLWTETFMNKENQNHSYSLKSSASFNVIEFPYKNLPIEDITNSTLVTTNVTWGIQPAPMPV
Sequence of recombinant human integrin αvβ1 (P05556 21-728): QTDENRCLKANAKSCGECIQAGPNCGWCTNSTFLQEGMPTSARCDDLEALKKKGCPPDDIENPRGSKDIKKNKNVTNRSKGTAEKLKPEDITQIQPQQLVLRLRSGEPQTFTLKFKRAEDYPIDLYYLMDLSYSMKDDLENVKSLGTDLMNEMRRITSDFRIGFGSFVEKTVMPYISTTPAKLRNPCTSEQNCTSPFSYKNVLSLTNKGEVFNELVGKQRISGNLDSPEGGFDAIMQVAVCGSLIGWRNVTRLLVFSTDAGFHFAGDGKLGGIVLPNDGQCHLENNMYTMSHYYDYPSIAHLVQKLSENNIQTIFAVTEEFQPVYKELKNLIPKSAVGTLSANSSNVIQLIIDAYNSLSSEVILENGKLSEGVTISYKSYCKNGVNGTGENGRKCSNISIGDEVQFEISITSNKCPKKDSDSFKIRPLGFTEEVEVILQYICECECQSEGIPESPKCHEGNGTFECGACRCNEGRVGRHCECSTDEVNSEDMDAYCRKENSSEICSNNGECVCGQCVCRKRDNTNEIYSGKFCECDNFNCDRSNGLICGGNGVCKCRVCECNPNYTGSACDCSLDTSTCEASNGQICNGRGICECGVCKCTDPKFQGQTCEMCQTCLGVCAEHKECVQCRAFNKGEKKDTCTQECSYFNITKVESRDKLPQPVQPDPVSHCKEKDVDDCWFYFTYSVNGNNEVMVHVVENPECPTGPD
Method: Example B2—Solid Phase Integrin αvβ1 Binding Assay
Microplates were coated with recombinant human integrin αvβ1 (2 ug/ml) in PBS (100 ul/well 4° C., overnight). The coating solution was removed, washed with PBS. Plate was blocked with 200 ul/well of Block Buffer (2% BSA in PBS) at 37° C. for 1 h. Dilutions of testing compounds and recombinant fibronectin (2 ug/ml) in binding and washing buffer (50 mM Tris-HCl, ph7.5; 0.1% BSA, 1 mM MnCl2; NaCl 150 mM; 0.02% Tween-20; 1 mM CaCl2); 1 mM MgCl2) were added. The plate was incubated for 2 hours at 25° C., washed, and incubated for 1 hour with Biotin-Anti-fibronectin. Bound antibody was detected by peroxidase-conjugated streptavidin. The IC50 values for testing compounds were calculated by a four-parameter logistic regression.
The compounds tested were compound samples prepared according to procedures described in the Synthetic Examples section, with the stereochemical purity as indicated in the Examples. The compounds tested were predominantly S-configuration at the alpha carbon of the amino acid scaffold, except for compounds 123, 124, and 125 which were predominantly R-configuration at the alpha carbon of the amino acid scaffold.

Sequence of αvβ1 integrin (αvβ1 expressing CHO cells) (P06756 31-889): as the sequence (P06756 31-889) above
Sequence of αvβ1 integrin (αvβ1 expressing CHO cells) (P06756 891-1048 partner): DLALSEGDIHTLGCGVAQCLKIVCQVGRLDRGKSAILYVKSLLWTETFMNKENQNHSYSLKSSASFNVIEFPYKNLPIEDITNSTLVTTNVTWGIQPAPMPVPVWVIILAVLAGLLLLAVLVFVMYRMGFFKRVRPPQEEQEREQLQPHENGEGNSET
Sequence of αvβ1 integrin (αvβ1 expressing CHO cells) (P05556 21-798): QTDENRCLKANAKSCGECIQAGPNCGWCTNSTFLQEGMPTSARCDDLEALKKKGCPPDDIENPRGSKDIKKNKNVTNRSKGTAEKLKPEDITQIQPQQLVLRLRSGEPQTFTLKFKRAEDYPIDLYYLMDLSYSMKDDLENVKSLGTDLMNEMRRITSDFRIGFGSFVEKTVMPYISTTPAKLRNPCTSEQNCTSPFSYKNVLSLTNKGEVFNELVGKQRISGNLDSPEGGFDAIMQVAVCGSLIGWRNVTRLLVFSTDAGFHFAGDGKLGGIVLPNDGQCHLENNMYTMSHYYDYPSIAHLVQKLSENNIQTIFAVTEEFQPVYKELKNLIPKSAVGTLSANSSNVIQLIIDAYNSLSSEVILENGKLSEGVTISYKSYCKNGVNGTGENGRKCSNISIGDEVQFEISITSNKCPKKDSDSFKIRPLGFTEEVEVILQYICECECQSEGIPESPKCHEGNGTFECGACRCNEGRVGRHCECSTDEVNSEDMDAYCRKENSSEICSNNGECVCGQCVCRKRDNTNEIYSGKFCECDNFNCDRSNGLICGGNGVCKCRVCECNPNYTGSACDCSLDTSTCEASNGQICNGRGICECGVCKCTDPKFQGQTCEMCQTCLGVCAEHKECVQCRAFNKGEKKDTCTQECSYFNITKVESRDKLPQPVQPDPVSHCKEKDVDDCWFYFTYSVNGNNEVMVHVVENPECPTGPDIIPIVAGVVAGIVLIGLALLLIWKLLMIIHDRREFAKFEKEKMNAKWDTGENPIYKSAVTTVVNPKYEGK

IC50 [1]: 50 to 250 nM
IC50 [2]: < 50 nM
Compound: Cn1ncc2ccc(C(=O)NC(CCCCCCCc3ccc4c(n3)NCCC4)C(=O)O)cc21 (centres unmarked) [Compound 81, 2-(1-methyl-1H-indazole-6-carboxamido)-9-(5,6,7,8-tetrahydro-1,8-naphthyridin-2-yl)nonanoic acid]
